Laboratory results: publication PMC3005334 (Cell, 2010)

Columns and labels:
[1] = tested on: Atg1, Psk2 and denatured Ypk1; test: In vitro small metabolite-protein binding assay; set-up: species or system Saccharomyces cerevisiae; details: denatured protein or control proteins; indicates non-specific adsorption
Kin4 = target: T1, Kin4 (Saccharomyces cerevisiae, UniProt Q01919); test: Affinity purification of tagged protein kinase and LC-MS of bound metabolites; format: binding; details: 379.337 amu at 10.98 min
T1 sequence (Q01919 1-800): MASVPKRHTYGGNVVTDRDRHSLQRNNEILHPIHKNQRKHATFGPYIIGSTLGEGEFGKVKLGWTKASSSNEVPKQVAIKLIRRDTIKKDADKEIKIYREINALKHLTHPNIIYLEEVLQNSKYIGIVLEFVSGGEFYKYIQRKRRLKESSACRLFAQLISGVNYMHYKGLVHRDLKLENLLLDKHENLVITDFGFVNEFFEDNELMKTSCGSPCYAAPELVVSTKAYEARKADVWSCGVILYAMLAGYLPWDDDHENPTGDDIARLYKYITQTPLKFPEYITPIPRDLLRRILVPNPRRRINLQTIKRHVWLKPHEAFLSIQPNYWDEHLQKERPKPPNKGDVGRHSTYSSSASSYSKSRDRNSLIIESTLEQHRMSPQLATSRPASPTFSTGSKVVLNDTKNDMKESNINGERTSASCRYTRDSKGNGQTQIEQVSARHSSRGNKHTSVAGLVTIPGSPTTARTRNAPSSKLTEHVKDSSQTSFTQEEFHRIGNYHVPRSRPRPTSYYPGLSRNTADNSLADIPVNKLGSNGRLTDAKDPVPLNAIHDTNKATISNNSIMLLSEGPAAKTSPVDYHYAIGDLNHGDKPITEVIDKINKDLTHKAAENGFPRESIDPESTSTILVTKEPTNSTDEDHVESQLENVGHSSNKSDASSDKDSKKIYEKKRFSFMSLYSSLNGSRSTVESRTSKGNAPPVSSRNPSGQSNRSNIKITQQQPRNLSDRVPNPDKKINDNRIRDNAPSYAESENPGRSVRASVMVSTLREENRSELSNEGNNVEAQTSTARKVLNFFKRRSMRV

Hmg1 = target: T2, Hmg1 (Saccharomyces cerevisiae, UniProt P12683); format: binding; details: probably low level of protein in the preparation
T2 sequence (P12683 1-1054): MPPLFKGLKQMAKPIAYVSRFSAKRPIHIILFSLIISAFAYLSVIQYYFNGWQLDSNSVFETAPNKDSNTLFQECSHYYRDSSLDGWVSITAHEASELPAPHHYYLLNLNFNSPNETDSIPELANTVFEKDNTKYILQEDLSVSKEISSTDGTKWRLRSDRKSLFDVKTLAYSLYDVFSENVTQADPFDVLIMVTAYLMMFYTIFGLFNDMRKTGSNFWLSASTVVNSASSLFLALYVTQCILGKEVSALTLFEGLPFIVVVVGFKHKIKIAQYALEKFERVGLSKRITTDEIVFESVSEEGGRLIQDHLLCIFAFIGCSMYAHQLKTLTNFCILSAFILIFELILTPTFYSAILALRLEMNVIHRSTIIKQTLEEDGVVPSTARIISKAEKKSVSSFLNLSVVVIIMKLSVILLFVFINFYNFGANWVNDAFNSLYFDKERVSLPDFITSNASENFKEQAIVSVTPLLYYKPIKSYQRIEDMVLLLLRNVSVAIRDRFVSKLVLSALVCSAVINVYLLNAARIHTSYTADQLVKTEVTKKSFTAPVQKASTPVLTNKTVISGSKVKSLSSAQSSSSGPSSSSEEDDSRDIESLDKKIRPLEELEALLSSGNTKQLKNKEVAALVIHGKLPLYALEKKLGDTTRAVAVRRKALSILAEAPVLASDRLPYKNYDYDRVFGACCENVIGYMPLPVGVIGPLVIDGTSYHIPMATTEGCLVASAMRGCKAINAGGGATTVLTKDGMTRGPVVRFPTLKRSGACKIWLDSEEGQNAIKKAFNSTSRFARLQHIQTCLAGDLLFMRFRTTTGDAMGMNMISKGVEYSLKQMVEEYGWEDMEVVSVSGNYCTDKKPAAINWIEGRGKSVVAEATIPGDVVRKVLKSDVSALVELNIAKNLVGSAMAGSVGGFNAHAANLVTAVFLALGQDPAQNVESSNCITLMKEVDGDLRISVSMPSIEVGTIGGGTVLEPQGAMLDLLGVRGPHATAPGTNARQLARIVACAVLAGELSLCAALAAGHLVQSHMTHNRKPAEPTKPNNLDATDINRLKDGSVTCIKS

Compound: CC(C)[C@@H](C)/C=C/[C@@H](C)[C@H]1CC[C@H]2C3=CC=C4C[C@@H](O)CC[C@]4(C)[C@H]3CC[C@]12C [ergosterol]
- shape of binding curve over increasing free ergosterol [1]: close to linear
- binding to Kin4 (Kin4): specific binding
- detection with Hmg1 (Hmg1): not detected
